Laboratory results published in article PMC10518257 (Nature Cancer, 2023).
Values joined by “and” are separate entries in the source; they are usually repeats but may differ in a detail not shown here. Equal values may be shown once.

Columns and labels:
[1] = tested on: Ba/F3 KIF5B–RET^WT allograft tumors; experiment: Subcutaneous allograft efficacy study; assay type: in vivo, BALB/c nude mice; conditions: Ba/F3-KIF5B::RET; 100 mg/kg BID; Day 8; Ext. Data Fig. 9a
LUAD-0087AS2 PDX = experiment: PDX efficacy study; conditions: for Tumor volume: LUAD-0087AS2, selpercatinib group 30 mg/kg BID, individual animals
[2] = Animal weight of tumor-bearing mice; conditions: for Animal Weight (g), Mean: Ba/F3-KIF5B::RET tumor-bearing mice (Ext. Data Fig 8h); for Animal Weight: individual animals

COc1ccc(CN2C3CC2CN(c2ccc(-c4cc(OCC(C)(C)O)cn5ncc(C#N)c45)cn2)C3)cn1 [Selpercatinib]
Tumor Volume Mean [1]: 75.50 mm3 | Area Under Curve Mean (LUAD-0087AS2 PDX; Fig. 6a LUAD-0087AS2 tumor growth, selpercatinib 30 mg/kg BID): -1216 | Tumor volume (LUAD-0087AS2 PDX; treatment day 0): 118.47 (2×) and 116.65 and 114.49 (2×) | Tumor volume (LUAD-0087AS2 PDX; treatment day 3): 107.17 (3×) and 103.77 and 112.73 | Tumor volume (LUAD-0087AS2 PDX; treatment day 7): 99.78 and 112.28 and 107.17 (2×) and 110.58 | Tumor volume (LUAD-0087AS2 PDX; treatment day 10): 95.03 (4×) and 96.62 | Tumor volume (LUAD-0087AS2 PDX; treatment day 14): 91.61 and 88.25 and 95.03 and 86.78 and 91.87 | Tumor volume (LUAD-0087AS2 PDX; treatment day 17): 103.77 and 88.25 and 107.17 and 96.62 and 91.87 | Tumor volume (LUAD-0087AS2 PDX; treatment day 21): 103.77 and 83.83 and 96.62 (2×) and 91.87 | Tumor volume (LUAD-0087AS2 PDX; treatment day 24): 72.18 (2×) and 83.97 and 80.89 and 74.9 | Tumor volume (LUAD-0087AS2 PDX; treatment day 29): 80.89 (2×) and 72.18 and 85.5 and 74.9 | Tumor volume (LUAD-0087AS2 PDX; treatment day 32): 80.89 (3×) and 75.04 and 70.69 | Tumor volume (LUAD-0087AS2 PDX; treatment day 35): 82.36 and 75.04 and 88.7 and 80.89 and 70.69 | Tumor volume (LUAD-0087AS2 PDX; treatment day 38): 79.29 and 75.04 and 88.7 and 80.89 and 70.69 | Tumor volume (LUAD-0087AS2 PDX; treatment day 42): 79.29 and 75.04 and 98.67 and 80.89 and 77.87 | Tumor volume (LUAD-0087AS2 PDX; treatment day 45): 79.29 and 72.18 and 98.67 and 68.07 and 73.54 | Animal Weight, Mean ([2]; Ba/F3-KIF5B::RET G810R (Fig 8f), Selpercatinib 10 mg/kg BID, day 1): 27.18 g | Animal Weight, Mean ([2]; Ba/F3-KIF5B::RET G810R (Fig 8f), Selpercatinib 10 mg/kg BID, day 4): 26.90 g | Animal Weight, Mean ([2]; Ba/F3-KIF5B::RET G810R (Fig 8f), Selpercatinib 10 mg/kg BID, day 8): 26.00 g | Animal Weight, Mean ([2]; Ba/F3-KIF5B::RET G810R (Fig 8f), Selpercatinib 10 mg/kg BID, day 11): 26.60 g | Animal Weight, Mean ([2]; Ba/F3-KIF5B::RET G810R (Fig 8f), Selpercatinib 10 mg/kg BID, day 15): 26.48 g | Animal Weight, Mean ([2]; Ba/F3-KIF5B::RET G810R (Fig 8g), Selpercatinib 30 mg/kg BID, day 1): 25.8 g | Animal Weight, Mean ([2]; Ba/F3-KIF5B::RET G810R (Fig 8g), Selpercatinib 30 mg/kg BID, day 4): 26.9 g | Animal Weight, Mean ([2]; Ba/F3-KIF5B::RET G810R (Fig 8g), Selpercatinib 30 mg/kg BID, day 8): 27.0 g | Animal Weight, Mean ([2]; Ba/F3-KIF5B::RET G810R (Fig 8g), Selpercatinib 30 mg/kg BID, day 11): 26.8 g | Animal Weight, Mean ([2]; Ba/F3-KIF5B::RET G810R (Fig 8g), Selpercatinib 30 mg/kg BID, day 15): 26.8 g | Animal Weight (g), Mean ([2]; 3 mg/kg BID, day 1): 28.0 g | Animal Weight (g), Mean ([2]; 3 mg/kg BID, day 4): 28.1 g | Animal Weight (g), Mean ([2]; 3 mg/kg BID, day 8): 28.6 g | Animal Weight (g), Mean ([2]; 3 mg/kg BID, day 11): 28.6 g | Animal Weight (g), Mean ([2]; 3 mg/kg BID, day 15): 28.4 g | Animal Weight (g), Mean ([2]; 10 mg/kg BID, day 1): 27.7 g | Animal Weight (g), Mean ([2]; 10 mg/kg BID, day 4): 27.7 g | Animal Weight (g), Mean ([2]; 10 mg/kg BID, day 8): 28.2 g | Animal Weight (g), Mean ([2]; 10 mg/kg BID, day 11): 28.7 g | Animal Weight (g), Mean ([2]; 10 mg/kg BID, day 15): 28.6 g | Animal Weight (g), Mean ([2]; 30 mg/kg BID, day 1): 28.1 g | Animal Weight (g), Mean ([2]; 30 mg/kg BID, day 4): 27.9 g | Animal Weight (g), Mean ([2]; 30 mg/kg BID, day 8): 29.0 g | Animal Weight (g), Mean ([2]; 30 mg/kg BID, day 11): 29.6 g | Animal Weight (g), Mean ([2]; 30 mg/kg BID, day 15): 29.2 g | Animal Weight (g), Mean ([2]; 100 mg/kg BID, day 1): 26.8 g | Animal Weight (g), Mean ([2]; 100 mg/kg BID, day 4): 26.1 g | Animal Weight (g), Mean ([2]; 100 mg/kg BID, day 8): 23.3 g | Animal Weight ([2]; LUAD-0077AS1 PDX, Selpercatinib 10 mg/kg BID, treatment day 0): 24 g and 25 g and 21 g and 23 g (2×) | Animal Weight ([2]; LUAD-0077AS1 PDX, Selpercatinib 10 mg/kg BID, treatment day 4): 24 g (3×) and 21 g and 23 g | Animal Weight ([2]; LUAD-0077AS1 PDX, Selpercatinib 10 mg/kg BID, treatment day 7): 23 g (3×) and 21 g and 24 g | Animal Weight ([2]; LUAD-0077AS1 PDX, Selpercatinib 10 mg/kg BID, treatment day 11): 24 g (2×) and 23 g (2×) and 21 g | Animal Weight ([2]; LUAD-0077AS1 PDX, Selpercatinib 10 mg/kg BID, treatment day 14): 23 g and 24 g (2×) and 21 g and 25 g | Animal Weight ([2]; LUAD-0077AS1 PDX, Selpercatinib 10 mg/kg BID, treatment day 19): 25 g and 23 g and 22 g and 26 g and 24 g | Animal Weight ([2]; LUAD-0087AS2 PDX, Selpercatinib 30 mg/kg BID, treatment day 0): 27 g (4×) and 28 g | Animal Weight ([2]; LUAD-0087AS2 PDX, Selpercatinib 30 mg/kg BID, treatment day 3): 26 g (3×) and 28 g and 27 g | Animal Weight ([2]; LUAD-0087AS2 PDX, Selpercatinib 30 mg/kg BID, treatment day 7): 27 g (3×) and 26 g and 28 g | Animal Weight ([2]; LUAD-0087AS2 PDX, Selpercatinib 30 mg/kg BID, treatment day 10): 27 g (3×) and 26 g (2×) | Animal Weight ([2]; LUAD-0087AS2 PDX, Selpercatinib 30 mg/kg BID, treatment day 14): 26 g (3×) and 27 g (2×) | Animal Weight ([2]; LUAD-0087AS2 PDX, Selpercatinib 30 mg/kg BID, treatment day 17): 27 g (4×) and 26 g | Animal Weight ([2]; LUAD-0087AS2 PDX, Selpercatinib 30 mg/kg BID, treatment day 21): 28 g and 27 g (2×) and 26 g and 25 g | Animal Weight ([2]; LUAD-0087AS2 PDX, Selpercatinib 30 mg/kg BID, treatment day 24): 28 g (2×) and 27 g (2×) and 26 g | Animal Weight ([2]; LUAD-0087AS2 PDX, Selpercatinib 30 mg/kg BID, treatment day 29): 26 g (2×) and 27 g and 28 g (2×) | Animal Weight ([2]; LUAD-0087AS2 PDX, Selpercatinib 30 mg/kg BID, treatment day 32): 26 g (2×) and 28 g (3×) | Animal Weight ([2]; LUAD-0087AS2 PDX, Selpercatinib 30 mg/kg BID, treatment day 35): 26 g (2×) and 28 g and 27 g (2×) | Animal Weight ([2]; LUAD-0087AS2 PDX, Selpercatinib 30 mg/kg BID, treatment day 38): 23 g (2×) and 28 g and 29 g and 26 g | Animal Weight ([2]; LUAD-0087AS2 PDX, Selpercatinib 30 mg/kg BID, treatment day 42): 27 g (4×) and 26 g | Animal Weight ([2]; LUAD-0087AS2 PDX, Selpercatinib 30 mg/kg BID, treatment day 45): 28 g (3×) and 27 g (2×)
